Data reported in the supplement of paper PMC10307832.

Compound: COc1cc(-c2nn([C@H]3CC[C@H](N4CCN(C(C)=O)CC4)CC3)c3ncnc(N)c23)ccc1NC(=O)c1cc2ccccc2n1C + N=C(N)NC(=N)NCCc1ccccc1 [Phenformin] (partner 250 µM)
Assay: relative viability (nuclei count vs DMSO), 5 days (fraction); higher = more cells survive
Conditions: first compound 0.128 µM
Outline: (§1)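 After 5 days of treatment, lung cancer cells in 1536-well plates were fixed and stained in a single step (final 0.05% Triton X-100, 1% formaldehyde, 1 ug/ml Hoechst) and their nuclei counted on 4× images. Treatment had been applied by pin tool the day after seeding as one drug alone or as a fixed anchor-drug dose with five library-drug doses (not always all listed) in √10 steps. Relative viability is the nuclei count of treated wells divided by that of vehicle wells, and values are medians of duplicate plates.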

Cell Line	relative viability
NCI-H838	0.509
LCLC-103H	0.342
NCI-H520	0.566
NCI-H2126	0.539
EMC-BAC-2	0.499
NCI-H2085	0.781
HCC-366	0.623
NCI-H1666	0.577
NCI-H596	0.657
LK-2	0.408
NCI-H2087	0.529
SK-MES-1	0.587
H3255	0.36
COR-L23	0.413
COR-L 105	0.4
LOU-NH91	0.808
ChaGo-K-1	0.417
NCI-H2170	0.405
A549	0.151
NCI-H522	0.641
SW 900	0.494
NCI-H441	0.849
NCI-H1395	0.431
NCI-H1793	0.317
NCI-H1563	0.662

Same assay, conditions: first compound 1.28 µM

Cell Line	relative viability
NCI-H2342	0.628
NCI-H1623	0.53
NCI-H727	0.619
NCI-H1650	0.479
NCI-H1993	0.488
SW 1573	0.399
NCI-H838	0.388
LCLC-103H	0.358
NCI-H520	0.425
NCI-H2126	0.435
EMC-BAC-2	0.422
NCI-H2085	0.654
HCC-366	0.658
NCI-H1666	0.537
NCI-H596	0.579
LK-2	0.485

Cell Line	relative viability
NCI-H2087	0.462
SK-MES-1	0.631
H3255	0.282
COR-L23	0.434
COR-L 105	0.232
LOU-NH91	0.649
ChaGo-K-1	0.431
NCI-H2170	0.377
A549	0.185
NCI-H522	0.541
SW 900	0.448
NCI-H441	0.812
NCI-H1395	0.395
NCI-H1793	0.289
NCI-H1563	0.617

Compound: CO[C@@H]1[C@H](N(C)C(=O)c2ccccc2)C[C@H]2O[C@]1(C)n1c3ccccc3c3c4c(c5c6ccccc6n2c5c31)C(=O)NC4 [Midostaurin] + CS(=O)(=O)CCNCc1ccc(-c2ccc3ncnc(Nc4ccc(OCc5cccc(F)c5)c(Cl)c4)c3c2)o1 [Lapatinib] (partner 2 µM)
Assay: as above
Conditions: first compound 0.01 µM
Outline: as §1

Cell Line	relative viability
NCI-H727	1.02
NCI-H1650	0.757
EBC-1	0.208
NCI-H1703	1.04
NCI-H1993	0.831
SW 1573	1.2
NCI-H838	0.955
NCI-H520	0.866
NCI-H2126	0.753
EMC-BAC-2	0.869
NCI-H2085	0.759
Calu-6	0.94
HCC-366	1.01
NCI-H1666	0.74
NCI-H596	1.21
LK-2	0.916
NCI-H2087	1.09
SK-MES-1	0.455
H3255	0.35
COR-L23	0.922
COR-L 105	0.364
IA-LM	0.886
LOU-NH91	0.736
NCI-H2170	0.29
A549	0.954
NCI-H1395	1.04
NCI-H1299	0.959
NCI-H1793	0.971
NCI-H1563	0.929

Same assay, conditions: first compound 0.03162 µM

Cell Line	relative viability
NCI-H727	0.739
NCI-H1650	0.791
EBC-1	0.212
NCI-H1703	1.08
NCI-H1993	0.805
SW 1573	1.17
NCI-H838	0.92
NCI-H520	0.942
NCI-H2126	0.687
EMC-BAC-2	0.828
NCI-H2085	0.857
Calu-6	1.02
HCC-366	1.04
NCI-H1666	0.617
NCI-H596	1.12
LK-2	0.901
NCI-H2087	0.889
SK-MES-1	0.439
H3255	0.282
COR-L23	1.1
COR-L 105	0.395
IA-LM	0.579
LOU-NH91	0.736
NCI-H2170	0.259
A549	0.854
NCI-H1395	1.12
NCI-H1299	0.93
NCI-H1793	0.715
NCI-H1563	0.97

Same assay, conditions: first compound 0.1 µM

Cell Line	relative viability
NCI-H727	0.91
NCI-H1650	0.878
EBC-1	0.217
NCI-H1703	1.1
NCI-H1993	0.809
SW 1573	1.06
NCI-H838	0.897
NCI-H520	0.762
NCI-H2126	0.808
EMC-BAC-2	0.872
NCI-H2085	0.823
Calu-6	1.02
HCC-366	1.04
NCI-H1666	0.81
NCI-H596	1.13
LK-2	0.921
NCI-H2087	1.02
SK-MES-1	0.395
H3255	0.259
COR-L23	0.835
COR-L 105	0.357
IA-LM	0.984
LOU-NH91	0.811
NCI-H2170	0.255
A549	1
NCI-H1395	0.912
NCI-H1299	0.871
NCI-H1793	0.767
NCI-H1563	0.77

Same assay, conditions: first compound 0.3162 µM

Cell Line	relative viability
NCI-H727	0.728
NCI-H1650	0.581
EBC-1	0.222
NCI-H1703	0.317
NCI-H1993	0.79
